Test results: patent US20230226040A1, “COMBINATION THERAPY COMPRISING AN FGFR INHIBITOR AND A KRAS INHIBITOR” (Incyte Corporation, priority 2021, published 2023)
Several values for one entry are separate records, joined by “and”; a condition that tells them apart may be missing. Equal entries are not always repeated.

How the values were obtained:
[1] = tested on: MiaPaca2 KRAS G12C resistant clone 23; test: 5-day Cell Titer Glo viability and Bliss score; type: cell-based; details: 5-day CTG
Method: (§1) For G12C resistant clone generation, MiaPaca2 parent cells were cultured with increasing concentrations of AMG510 (up to 1μM) over time. The viable cells were re-fed fresh media containing AMG510 weekly. Once the AMG510 resistant cells were growing at normal rates in the presence of 1μM AMG510, they were cloned by limiting dilution. Eight clones were selected for continued passage and further experiments.

[2] = tested on: MiaPaca2 KRAS G12C resistant clone 7; test: 5-day Cell Titer Glo viability and Bliss score; type: cell-based; details: 5-day CTG; for % viability, Pemi 1 μM: Pemi alone
Method: as §1

[3] = tested on: MiaPaca2 KRAS G12C resistant clone 28; test: 5-day Cell Titer Glo viability and Bliss score; type: cell-based; details: 5-day CTG
Method: as §1

H2122 = test: 5-day Cell Titer Glo combination matrix, Bliss score; type: cell-based; details: H2122 (Lung, Epithelial); FGFR inhibitor in combination with MRTX849; 5 days
Method: (§2) Cells were seeded in RPMI medium with 10% HI FBS at a density of 500 cells/well in Greiner, white, clear bottom, 384-well tissue culture treated plates containing 10×10 combination matrices of compound. Plates were incubated at 37° C., 5% CO2 for 5 days. On day 5, Cell Titer Glo reagent was added to the plates and ATP luminescence was detected using a Pherastar FSX reader. The synergy score for the combination effect was calculated using a Bliss score model where the Bliss score=Yab−(Ya+Yb−(YaYb))×100, where Ya and Yb are the monotherapies. Bliss scores >20 are strongly synergistic and a higher Bliss scores indicates a higher level of synergism.

pFRS2a = test: Western blot of pFRS2a in LU99 cell lysate (90 hours treatment); type: cell-based; details: LU99 cells
From the text: FGFR1 and downstream activation marker pFRS2a protein levels were examined in indicated cell lines, as well as markers for epithelial-like cells (E-cadherin) and mesenchymal-like cells (Vimentin).

HCC-44 = test: 5-day Cell Titer Glo combination matrix, Bliss score; type: cell-based; details: HCC44 (Lung, Mesenchymal); FGFR inhibitor in combination with MRTX849; 5 days
Method: (§3) Cells were seeded in RPMI medium with 10% HI FBS at a density of 500 cells/well in Greiner, white, clear bottom, 384-well tissue culture treated plates containing 10×10 combination matrices of compound. Plates were incubated at 37° C., 5% CO2 for 5 days. On day 5, Cell Titer Glo reagent was added to the plates and ATP luminescence was detected using a Pherastar FSX reader. The synergy score for the combination effect was calculated using a Bliss score model where the Bliss score=Yab-(Ya+Yb−(YaYb))×100, where Ya and Yb are the monotherapies. Bliss scores >20 are strongly synergistic and a higher Bliss scores indicates a higher level of synergism.
as §2

MiaPaca2 cells = test: 5-day Cell Titer Glo viability and Bliss score
Method: For synergy experiments, cells were seeded in RPMI medium with 10% HI FBS at a density of 500 cells/well in Greiner, white, clear bottom, 384-well tissue culture treated plates containing 10x10 combination matrices of compound. Plates were incubated at 37° C., 5% CO2 for 5 days. On day 5, Cell Titer Glo reagent was added to the plates and ATP luminescence was detected using a Pherastar FSX reader. The synergy score for the combination effect was calculated using a Bliss score model where the Bliss score=Yab−(Ya+Yb−(YaYb))×100, where Ya and Yb are the monotherapies. Bliss scores >20 are strongly synergistic and a higher Bliss scores indicates a higher level of synergism.

[4] = tested on: LU99 lung cancer xenograft; test: LU99 xenograft model, tumor growth inhibition; type: in vivo; details: NCr nude mice; AMG510 20 mg/kg, pemigatinib 0.3 mg/kg, alone or combined; oral QD, 30 days; last day of treatment
Method: The in vivo effect of combining the FGFR1 inhibitor pemigatinib plus the KRAS G12C inhibitor AMG510 was assessed in the LU99 lung cancer model (JCRB0080, JCRB) xenograft model (FIG. 3) in 6 to 8 week old female NCr nude mice (Taconic). Pemigatinib and AMG510 were suspended in 5% N,N-dimethyl acetamide (DMAC)+50 mM Citrate buffer (pH 3.0) in 0.5% methyl cellulose for oral administration. Briefly, mice were inoculated in the left flank with 1×10^7 LU99 cells re-suspended in a PBS and matrigel (Corning Life Sciences, Tewksbury, Mass) solution at 1:1. On Day 7, mice were randomized into 4 groups of 10 mice at approximate mean volume (˜212 mm^3). […] Tumor growth inhibition was calculated using the formula (1−(VT/VC))×100, where VT is the tumor volume of the treatment group on the last day of treatment, and Vc is the tumor volume of the control group on the last day of treatment. […] Statistics were determined using One-Way ANOVA.
Briefly, mice were inoculated in the left flank with 1×10^7LU99 cells re-suspended in a PBS and matrigel (Corning Life Sciences, Tewksbury, Mass) solution at 1:1. […] TGI was calculated using the formula (1−(VT/VC))×100, where VT is the tumor volume of the treatment group on the last day of treatment, and VC is the tumor volume of the control group on the last day of treatment. […]

H1792 = test: 5-day Cell Titer Glo combination matrix, Bliss score; type: cell-based; details: H1792 (Lung, Mesenchymal), 5 days
Method: as §3
(§4) Cells were seeded in RPMI medium with 10% HI FBS at a density of 500 cells/well in Greiner, white, clear bottom, 384-well tissue culture treated plates containing 10×10 combination matrices of compound. Plates were incubated at 37° C., 5% CO2 for 5 days. On day 5, Cell Titer Glo reagent was added to the plates and ATP luminescence was detected using a Pherastar FSX reader. Synergy score for the combination effect is calculated using a Bliss score model where the Bliss score=Yab−(Ya+Yb−(YaYb))×100, where Ya and Yb are the monotherapies. Bliss scores >20 are strongly synergistic and a higher Bliss scores indicates a higher level of synergism.
as §2

LU-99 = test: as above; type: cell-based; details: 5 days
Method: as §4, §2

SW-837 = test: as above; type: cell-based; details: SW837 (CRC, Epithelial); FGFR inhibitor in combination with MRTX849; 5 days
Method: as §3, §2

[5] = Average, G12C i 111 nM + Pemi 1 μM

Compound: CCN1C(=O)N(c2c(F)c(OC)cc(OC)c2F)Cc2cnc3[nH]c(CN4CCOCC4)cc3c21 [Pemigatinib, 3-(2,6-difluoro-3,5-dimethoxyphenyl)-1-ethyl-8-(morpholin-4-ylmethyl)-1,3,4,7-tetrahydro-2H-pyrrolo[3′,2′:5,6]pyrido[4,3-d]pyrimidin-2-one]
- % viability, Together ([1]; G12C i 111 nM + Pemi 1 μM): 74.9%
- BLISS Score ([1]; G12C i 111 nM + Pemi 1 μM): 16.1
- % viability, Pemi 1 μM ([1]; Pemi alone): 100.1%
- % viability, Together [2, 5]: 54.6%
- BLISS Score [2, 5]: 15.0
- % viability, Pemi 1 μM ([2]; Average): 101.1%
- % viability, Together ([2]; G12C i 111 nM + Pemi 1 μM, single experiments): 63% and 53% and 47.7%
- % viability, Pemi 1 μM ([2]; single experiments): 104% and 106% and 93.4%
- % viability, Together ([3]; G12C i 111 nM + Pemi 1 μM): 32.4%
- BLISS Score ([3]; G12C i 111 nM + Pemi 1 μM): 21.8
- % viability, Pemi 1 μM ([3]; Pemi alone): 78%
- Avg. Bliss Score (H2122): 4.5
- pFRS2a level, FGFR inhibitor in combination with KRAS inhibitor MRTX849 (pFRS2a; 50 nM MRTX849, pemigatinib 0.5 μM): inhibited the pFRS2a level
- pFRS2a level, FGFR inhibitor in combination with KRAS inhibitors (pFRS2a; with 50 nM AMG510 or Compound 2): inhibited the pFRS2a level
- Avg. Bliss Score (HCC-44): 11.6
- BLISS Score (MiaPaca2 cells; MIA PaCa2, Pemi 12 nM + KRAS G12C i 0.15 nM, 5 day CTG): −16.39
- BLISS Score (MiaPaca2 cells; MIA PaCa2, Pemi 12 nM + KRAS G12C i 0.46 nM, 5 day CTG): −9.92
- BLISS Score (MiaPaca2 cells; MIA PaCa2, Pemi 12 nM + KRAS G12C i 1.37 nM, 5 day CTG): −4.50
- BLISS Score (MiaPaca2 cells; MIA PaCa2, Pemi 12 nM + KRAS G12C i 4.12 nM, 5 day CTG): −1.78
- BLISS Score (MiaPaca2 cells; MIA PaCa2, Pemi 12 nM + KRAS G12C i 12.35 nM, 5 day CTG): −1.91
- BLISS Score (MiaPaca2 cells; MIA PaCa2, Pemi 12 nM + KRAS G12C i 37.04 nM, 5 day CTG): 1.33
- BLISS Score (MiaPaca2 cells; MIA PaCa2, Pemi 12 nM + KRAS G12C i 111.11 nM, 5 day CTG): 0.06
- BLISS Score (MiaPaca2 cells; MIA PaCa2, Pemi 12 nM + KRAS G12C i 333.33 nM, 5 day CTG): 0.73
- BLISS Score (MiaPaca2 cells; MIA PaCa2, Pemi 12 nM + KRAS G12C i 1000.00 nM, 5 day CTG): 0.29
- BLISS Score (MiaPaca2 cells; MIA PaCa2, Pemi 37 nM + KRAS G12C i 0.15 nM, 5 day CTG): −13.53
- BLISS Score (MiaPaca2 cells; MIA PaCa2, Pemi 37 nM + KRAS G12C i 0.46 nM, 5 day CTG): −5.08
- BLISS Score (MiaPaca2 cells; MIA PaCa2, Pemi 37 nM + KRAS G12C i 1.37 nM, 5 day CTG): 6.72
- BLISS Score (MiaPaca2 cells; MIA PaCa2, Pemi 37 nM + KRAS G12C i 4.12 nM, 5 day CTG): 4.25
- BLISS Score (MiaPaca2 cells; MIA PaCa2, Pemi 37 nM + KRAS G12C i 12.35 nM, 5 day CTG): 3.06
- BLISS Score (MiaPaca2 cells; MIA PaCa2, Pemi 37 nM + KRAS G12C i 37.04 nM, 5 day CTG): 5.01
- BLISS Score (MiaPaca2 cells; MIA PaCa2, Pemi 37 nM + KRAS G12C i 111.11 nM, 5 day CTG): 3.10
- BLISS Score (MiaPaca2 cells; MIA PaCa2, Pemi 37 nM + KRAS G12C i 333.33 nM, 5 day CTG): 2.88
- BLISS Score (MiaPaca2 cells; MIA PaCa2, Pemi 37 nM + KRAS G12C i 1000.00 nM, 5 day CTG): 2.69
- BLISS Score (MiaPaca2 cells; MIA PaCa2, Pemi 111 nM + KRAS G12C i 0.15 nM, 5 day CTG): −10.62
- BLISS Score (MiaPaca2 cells; MIA PaCa2, Pemi 111 nM + KRAS G12C i 0.46 nM, 5 day CTG): −7.15
- BLISS Score (MiaPaca2 cells; MIA PaCa2, Pemi 111 nM + KRAS G12C i 1.37 nM, 5 day CTG): 9.38
- BLISS Score (MiaPaca2 cells; MIA PaCa2, Pemi 111 nM + KRAS G12C i 4.12 nM, 5 day CTG): 4.70
- BLISS Score (MiaPaca2 cells; MIA PaCa2, Pemi 111 nM + KRAS G12C i 12.35 nM, 5 day CTG): 4.83
- BLISS Score (MiaPaca2 cells; MIA PaCa2, Pemi 111 nM + KRAS G12C i 37.04 nM, 5 day CTG): 6.56
- BLISS Score (MiaPaca2 cells; MIA PaCa2, Pemi 111 nM + KRAS G12C i 111.11 nM, 5 day CTG): 4.31
- BLISS Score (MiaPaca2 cells; MIA PaCa2, Pemi 111 nM + KRAS G12C i 333.33 nM, 5 day CTG): 3.66
- BLISS Score (MiaPaca2 cells; MIA PaCa2, Pemi 111 nM + KRAS G12C i 1000.00 nM, 5 day CTG): 4.56
- BLISS Score (MiaPaca2 cells; MIA PaCa2, Pemi 333 nM + KRAS G12C i 0.15 nM, 5 day CTG): −12.96
- BLISS Score (MiaPaca2 cells; MIA PaCa2, Pemi 333 nM + KRAS G12C i 0.46 nM, 5 day CTG): −5.77
- BLISS Score (MiaPaca2 cells; MIA PaCa2, Pemi 333 nM + KRAS G12C i 1.37 nM, 5 day CTG): 11.10
- BLISS Score (MiaPaca2 cells; MIA PaCa2, Pemi 333 nM + KRAS G12C i 4.12 nM, 5 day CTG): 7.47
- BLISS Score (MiaPaca2 cells; MIA PaCa2, Pemi 333 nM + KRAS G12C i 12.35 nM, 5 day CTG): 3.76
- BLISS Score (MiaPaca2 cells; MIA PaCa2, Pemi 333 nM + KRAS G12C i 37.04 nM, 5 day CTG): 6.27
- BLISS Score (MiaPaca2 cells; MIA PaCa2, Pemi 333 nM + KRAS G12C i 111.11 nM, 5 day CTG): 4.88
- BLISS Score (MiaPaca2 cells; MIA PaCa2, Pemi 333 nM + KRAS G12C i 333.33 nM, 5 day CTG): 3.97
- BLISS Score (MiaPaca2 cells; MIA PaCa2, Pemi 333 nM + KRAS G12C i 1000.00 nM, 5 day CTG): 2.38
- BLISS Score (MiaPaca2 cells; MIA PaCa2, Pemi 1000 nM + KRAS G12C i 0.15 nM, 5 day CTG): −10.95
- BLISS Score (MiaPaca2 cells; MIA PaCa2, Pemi 1000 nM + KRAS G12C i 0.46 nM, 5 day CTG): −5.74
- BLISS Score (MiaPaca2 cells; MIA PaCa2, Pemi 1000 nM + KRAS G12C i 1.37 nM, 5 day CTG): 3.46
- BLISS Score (MiaPaca2 cells; MIA PaCa2, Pemi 1000 nM + KRAS G12C i 4.12 nM, 5 day CTG): 6.59
- BLISS Score (MiaPaca2 cells; MIA PaCa2, Pemi 1000 nM + KRAS G12C i 12.35 nM, 5 day CTG): 2.84
- BLISS Score (MiaPaca2 cells; MIA PaCa2, Pemi 1000 nM + KRAS G12C i 37.04 nM, 5 day CTG): 4.32
- BLISS Score (MiaPaca2 cells; MIA PaCa2, Pemi 1000 nM + KRAS G12C i 111.11 nM, 5 day CTG): 4.62
- BLISS Score (MiaPaca2 cells; MIA PaCa2, Pemi 1000 nM + KRAS G12C i 333.33 nM, 5 day CTG): 3.71
- BLISS Score (MiaPaca2 cells; MIA PaCa2, Pemi 1000 nM + KRAS G12C i 1000.00 nM, 5 day CTG): 4.32
- BLISS Score (MiaPaca2 cells; MIAPACA2, Average, G12C i 111 nM + Pemi 1 μM, 5-day CTG): 6.3
- BLISS Score (MiaPaca2 cells; MIAPACA2, G12C i 111 nM + Pemi 1 μM, 5-day CTG, single experiments): 8.8 and 5.6 and 4.6
- TGI (tumor growth inhibition) [4]: 63%
- Avg. Bliss Score (H1792; FGFR inhibitor in combination with Cmpd 3): 24.2
- Avg. Bliss Score (H1792; FGFR inhibitor in combination with MRTX849): 19.9
- Avg. Bliss Score (LU-99; LU-99 (Lung, Mesenchymal), FGFR inhibitor in combination with Cmpd 3): 44.8
- Avg. Bliss Score (LU-99; Lu99 (Lung, Mesenchymal), FGFR inhibitor in combination with MRTX849): 37.4
- Avg. Bliss Score (SW-837): 6.1
